The test system of assay [1] is caspase 3/7. Nature of the assay: Caspase-3/7 activity assay (Apo-One) in LSMC. The format is cell-based, human. The conditions noted are these: Tranilast 200 μM, 48 hrs. On the procedure: LSMC were cultured in 96-well plates as mentioned above and at sub-confluence were treated with 200 μM Tranilast for 48 hrs. The caspase 3/7 activity was determined using the Apo-One homogeneous caspase-3/7 assay (Promega, Madison, Wis.) after the indicated time periods according to the manufacturer's protocol. The Apo-One caspase-3/7 reagent was added in a 1:1 ratio with the medium, and the rate of caspase-3/7 activity was determined by measuring the fluorescence using a multi-plate reader (Molecular Devices, Inc., Sunnyvale, Calif.) at an excitation of 485 nm and an emission of 527 nm.

Assay [2] deals with miR-200c. In words: Quantitative RT-PCR (TaqMan miRNA assay), cellular and secreted miRNA in LSMC. The assay is classed as cell-based, human. The following applies: Tranilast 200 μM, 48 hours, P<0.05. On the procedure:
(§1) Total RNA was extracted from LSMC using RNAzol (GeneCopoeia, Rockville, Md.) and their quantity and quality was determined (ND-1000 Spectrophotometer, NanoDrop Technologies, Wilmington, Del.) as previously described (Chuang & Khorram, “miR-200c Regulates IL8 Expression by Targeting IKBKB: A Potential Mediator of Inflammation in Leiomyoma Pathogenesis,” PloS one (2014) 9:e95370). For medium miRNA extraction, 5 pg of synthetic miR-1 from Caenorhabditis elegans (cel-miR-1) was added as a spike-in control for purification efficiency. Subsequently, 2 μg or 10 ng (for miRNA) was reverse transcribed using random primers for CCND1, CDK2, COL1A1, COL3A1, TGF-β3, DNMT1 and EZH2 or specific primers for miR-29c and miR-200c according to the manufacturer's guidelines (Applied Biosystems, Carlsbad, Calif.). Quantitative RT-PCR was carried out using SYBR gene expression master mix or TaqMan miRNA expression assays (Applied Biosystems). Reactions were incubated for 10 min at 95° C. followed by 40 cycles for 15 seconds at 95° C. and 1 min at 60° C. The level of mRNAs and expression of cellular and secreted miRNA was determined using the Invitrogen StepOne System with 18S, RNU6B and cel-miR-1 used for normalization respectively. All reactions were run in triplicate and relative expression was analyzed with the comparative cycle threshold method (2^−ΔΔCT) according to the manufacturer (Applied Biosystems). Values were expressed as fold change compared to the control group.
On the technique in general: Quantitative PCR measures a nucleic acid by following its amplification.

In assay [3] the test system is miR-29c. Described as above. The assay is classed as cell-based, human. The conditions noted are these: Tranilast 200 μM, 48 hours, P<0.05. On the procedure: as §1
The test system of assay [4] is miR-200c promoter. Nature of the assay: Methylation-specific PCR in LSMC. The format is cell-based, human. The following applies: Tranilast 200 μM, 24 hrs, Me/Me+Un, P<0.05. On the procedure:
(§2) LSMC at sub-confluence were treated with Tranilast (200 μM) for 24 hrs and genomic DNA was extracted and treated with bisulfite (EZ DNA Methylation Kit, Zymo Research Corporation, Irvine, Calif.). Since methylated cytosine residues remained unchanged after bisulfite conversion, this approach allows distinguishing DNA sequences which are methylated or unmethylated in specific genomic regions using sequence-specific PCR primers (Li & Dahiya, “MethPrimer: designing primers for methylation PCRs,” Bioinformatics (2002)18:1427-31). The pair of primers used to detect the methylated (Me) sequence of miR-29c promoter were 5′-[…]-3′ (SEQ ID NO:17) and 5′-[…]-3′ (SEQ ID NO:18) and for the unmethylated (Un) sequence of miR-29c promoter were 5′-[…]-3′ (SEQ ID NO:19) and 5′-[…]-3′ (SEQ ID NO:20). The pair of primers used to detect the methylated (Me) sequence of miR-200c promoter were 5′-[…]-3′ (SEQ ID NO:21) and 5′-[…]-3′ (SEQ ID NO:22), and for the unmethylated (Un) sequence of miR-200c promoter were 5′-[…]-3′ (SEQ ID NO:23) and 5′-[…]-3′ (SEQ ID NO:24). DNA amplification was carried out following manufacturer's protocol (HotStarTaq Plus PCR reagent, Qiagen, Valencia, Calif.). The PCR condition was 5 min at 95° C., followed by 40 cycles of amplification at 94° C. for 30 seconds, 30 seconds at 55° C., and 1 min at 72° C. […]

Assay [5] has as its system miR-29c promoter. Nature of the assay: Methylation-specific PCR in LSMC. The assay is classed as cell-based, human. The following applies: Tranilast 200 μM, 24 hrs, Me/Me+Un, P<0.05. How it is done: as §2
In assay [6] the test system is 3′UTR of CDK2. Nature of the assay: 3′UTR luciferase reporter assay in LSMC. The assay is classed as cell-based, human. The conditions noted are these: Tranilast 200 μM vs DMSO set as 1, 48 hrs before and 48 hrs after transfection, LSMC; P<0.05. (In general: In a reporter assay the amount or activity of a reporter protein is the signal.)
Assay [7] deals with 3′UTR of COL3A1 in lung cancer cell line A549. In words: 3′UTR luciferase reporter assay in A549. The assay is classed as cell-based. The following applies: Tranilast.
For assay [8], the system named is 3′UTR of CDK2 in lung cancer cell line A549. In words: 3′UTR luciferase reporter assay in A549. The format is cell-based. The conditions noted are these: Tranilast.
In assay [9] the test system is NF-Kb (p65) binding elements in the miR-200c promoter. In words: CHIP assay, p65 binding in the miR-200c promoter in LSMC. The format is cell-based, human. The following applies: Tranilast 200 μM, 48 hrs, percent input method.

Consider `COc1ccc(C=CC(=O)Nc2ccccc2C(=O)O)cc1OC` [Tranilast, 2-[[3-(3,4-dimethoxyphenyl)-1-oxo-2-propenyl]amino]benzoic acid], for which the “Caspase 3/7 activity” value in assay [1] is “without a significant effect”. In addition, the “expression of secreted (medium) miR-200c” value in assay [2] (LSMC medium) was “significantly increased”. In addition, in assay [2] (LSMC), the “expression of cellular miR-200c” value is “significantly increased”. In addition, in [3] (LSMC medium), the “expression of secreted (medium) miR-29c” value is given as “significantly increased”. Moreover, in assay [3] (LSMC), the “expression of cellular miR-29c” value is “significantly increased”. In [4], the “methylation status in miR-200c promoter” value is “significantly suppressed”. Moreover, in assay [5], the “methylation status in miR-29c promoter” value is “significantly suppressed”. The “3′UTR activity of CDK2 (relative luciferase activity, Firefly:Renilla)” value in [6] is “suppressed”. Further, the “activity of luciferase reporter containing 3′UTR of COL3A1” value in [7] is “Inhibits”. For the same compound, in assay [8], the “activity of luciferase reporter containing 3′UTR of CDK2” value is “Inhibits”. Further, the “p65 binding ability in miR-200c promoter” value in assay [9] is “decreased”.

Source of the values: patent US10517842B2, “Methods of modulating miRNA levels and compositions for use in the same” (Los Angeles Biomedical Research Institute at Harbor-UCLA …, priority 2017, dated 2019).
